# Reference: US9211310B2, “Use of a Chinese medicine composition in preparing medicaments for treating secondary prevention of myocardial infarction” (TASLY PHARMACEUTICAL GROUP CO., LTD, priority 2010, dated 2015)
# System: patients after acute myocardial infarction
# Test: TCM symptom score, total and single (chest pain, chest tightness, short breath, fatigue, palpitation, spontaneous perspiration, pale complexion), same clinical trial
# Format: in vivo, human
# Source text: 3508 patients who were in accordance with the diagnostic standards of AMI for 28 days to 2 years and differentiated as Qi deficiency and blood stagnation syndrome by TCM were studied. 0.5 g Chinese medicine composition prepared by the method of EXAMPLE 1 (Coded as QSYQ) was administrated half an hour after meal, 3 times per day.
# They included the overall survival time, angina pectoris score, TCM symptom score and life quality score, where angina pectoris score, TCM symptom score and life quality score were evaluated at randomization, in 1st, 3rd, 6th, 9th, 12th month after treatment and 18th month after follow-up.
# The analysis method referred to the angina pectoris score.
# [1] = 9 months after treatment-baseline, FAS
# [2] = 9 months after treatment-baseline, PP
# [3] = 12 months after treatment-baseline, FAS
smiles,measurement,setting,value
"CC(=O)Oc1ccccc1C(=O)O [Control group, aspirine]","chest pain score 0, percent of patients","6 months after treatment, PP",(42.93%)
same,"chest pain score 3, number of patients","6 months after treatment, PP",539
same,"chest pain score 3, percent of patients","6 months after treatment, PP",(37.75%)
same,"chest pain score 6, number of patients","6 months after treatment, PP",272
same,"chest pain score 6, percent of patients","6 months after treatment, PP",(19.05%)
same,"chest pain score 9, number of patients","6 months after treatment, PP",4
same,"chest pain score 9, percent of patients","6 months after treatment, PP",(0.28%)
same,"chest tightness score 0, number of patients","6 months after treatment, PP",613
same,"chest tightness score 0, percent of patients","6 months after treatment, PP",(42.93%)
same,"chest tightness score 3, number of patients","6 months after treatment, PP",539
same,"chest tightness score 3, percent of patients","6 months after treatment, PP",(37.75%)
same,"chest tightness score 6, number of patients","6 months after treatment, PP",272
same,"chest tightness score 6, percent of patients","6 months after treatment, PP",(19.05%)
same,"chest tightness score 9, number of patients","6 months after treatment, PP",4
same,"chest tightness score 9, percent of patients","6 months after treatment, PP",(0.28%)
same,"change of chest pain score 0, number of patients",[1],1022
same,"change of chest pain score 0, percent of patients",[1],(59.80%)
same,"change of chest pain score 3, number of patients",[1],463
same,"change of chest pain score 3, percent of patients",[1],(27.09%)
same,"change of chest pain score 6, number of patients",[1],124
same,"change of chest pain score 6, percent of patients",[1],(7.26%)
same,"change of chest pain score 9, number of patients",[1],6
same,"change of chest pain score 9, percent of patients",[1],(0.35%)
same,"change of chest pain score −3, number of patients",[1],81
same,"change of chest pain score −3, percent of patients",[1],(4.74%)
same,"change of chest pain score −6, number of patients",[1],13
same,"change of chest pain score −6, percent of patients",[1],(0.76%)
same,"change of chest pain score −9, number of patients",[1],0
same,"change of chest pain score −9, percent of patients",[1],(0.00%)
same,"change of chest tightness score 0, number of patients",[1],1007
same,"change of chest tightness score 0, percent of patients",[1],(58.92%)
same,"change of chest tightness score 3, number of patients",[1],534
same,"change of chest tightness score 3, percent of patients",[1],(31.25%)
same,"change of chest tightness score 6, number of patients",[1],68
same,"change of chest tightness score 6, percent of patients",[1],(3.98%)
same,"change of chest tightness score 9, number of patients",[1],4
same,"change of chest tightness score 9, percent of patients",[1],(0.23%)
same,"change of chest tightness score −3, number of patients",[1],93
same,"change of chest tightness score −3, percent of patients",[1],(5.44%)
same,"change of chest tightness score −6, number of patients",[1],3
same,"change of chest tightness score −6, percent of patients",[1],(0.18%)
same,"change of chest tightness score −9, number of patients",[1],0
same,"change of chest tightness score −9, percent of patients",[1],(0.00%)
same,"change of chest pain score 0, number of patients",[2],826
same,"change of chest pain score 0, percent of patients",[2],(58.58%)
same,"change of chest pain score 3, number of patients",[2],409
same,"change of chest pain score 3, percent of patients",[2],(29.01%)
same,"change of chest pain score 6, number of patients",[2],106
same,"change of chest pain score 6, percent of patients",[2],(7.52%)
same,"change of chest pain score 9, number of patients",[2],4
same,"change of chest pain score 9, percent of patients",[2],(0.28%)
same,"change of chest pain score −3, number of patients",[2],58
same,"change of chest pain score −3, percent of patients",[2],(4.11%)
same,"change of chest pain score −6, number of patients",[2],7
same,"change of chest pain score −6, percent of patients",[2],(0.50%)
same,"change of chest pain score −9, number of patients",[2],0
same,"change of chest pain score −9, percent of patients",[2],(0.00%)
same,"change of chest tightness score 0, number of patients",[2],801
same,"change of chest tightness score 0, percent of patients",[2],(56.81%)
same,"change of chest tightness score 3, number of patients",[2],476
same,"change of chest tightness score 3, percent of patients",[2],(33.76%)
same,"change of chest tightness score 6, number of patients",[2],62
same,"change of chest tightness score 6, percent of patients",[2],(4.40%)
same,"change of chest tightness score 9, number of patients",[2],3
same,"change of chest tightness score 9, percent of patients",[2],(0.21%)
same,"change of chest tightness score −3, number of patients",[2],65
same,"change of chest tightness score −3, percent of patients",[2],(4.61%)
same,"change of chest tightness score −6, number of patients",[2],3
same,"change of chest tightness score −6, percent of patients",[2],(0.21%)
same,"change of chest tightness score −9, number of patients",[2],0
same,"change of chest tightness score −9, percent of patients",[2],(0.00%)
same,"chest pain score 0, number of patients","9 months after treatment, FAS",791
same,"chest pain score 0, percent of patients","9 months after treatment, FAS",(46.04%)
same,"chest pain score 3, number of patients","9 months after treatment, FAS",618
same,"chest pain score 3, percent of patients","9 months after treatment, FAS",(35.97%)
same,"chest pain score 6, number of patients","9 months after treatment, FAS",305
same,"chest pain score 6, percent of patients","9 months after treatment, FAS",(17.75%)
same,"chest pain score 9, number of patients","9 months after treatment, FAS",4
same,"chest pain score 9, percent of patients","9 months after treatment, FAS",(0.23%)
same,"chest tightness score 0, number of patients","9 months after treatment, FAS",791
same,"chest tightness score 0, percent of patients","9 months after treatment, FAS",(46.04%)
same,"chest tightness score 3, number of patients","9 months after treatment, FAS",618
same,"chest tightness score 3, percent of patients","9 months after treatment, FAS",(35.97%)
same,"chest tightness score 6, number of patients","9 months after treatment, FAS",305
same,"chest tightness score 6, percent of patients","9 months after treatment, FAS",(17.75%)
same,"chest tightness score 9, number of patients","9 months after treatment, FAS",4
same,"chest tightness score 9, percent of patients","9 months after treatment, FAS",(0.23%)
same,"chest pain score 0, number of patients","9 months after treatment, PP",661
same,"chest pain score 0, percent of patients","9 months after treatment, PP",(46.71%)
same,"chest pain score 3, number of patients","9 months after treatment, PP",519
same,"chest pain score 3, percent of patients","9 months after treatment, PP",(36.68%)
same,"chest pain score 6, number of patients","9 months after treatment, PP",233
same,"chest pain score 6, percent of patients","9 months after treatment, PP",(16.47%)
same,"chest pain score 9, number of patients","9 months after treatment, PP",2
same,"chest pain score 9, percent of patients","9 months after treatment, PP",(0.14%)
same,"chest tightness score 0, number of patients","9 months after treatment, PP",661
same,"chest tightness score 0, percent of patients","9 months after treatment, PP",(46.71%)
same,"chest tightness score 3, number of patients","9 months after treatment, PP",519
same,"chest tightness score 3, percent of patients","9 months after treatment, PP",(36.68%)
same,"chest tightness score 6, number of patients","9 months after treatment, PP",233
same,"chest tightness score 6, percent of patients","9 months after treatment, PP",(16.47%)
same,"chest tightness score 9, number of patients","9 months after treatment, PP",2
same,"chest tightness score 9, percent of patients","9 months after treatment, PP",(0.14%)
same,"change of chest pain score 0, number of patients",[3],962
same,"change of chest pain score 0, percent of patients",[3],(56.29%)
same,"change of chest pain score 3, number of patients",[3],511
same,"change of chest pain score 3, percent of patients",[3],(29.90%)
same,"change of chest pain score 6, number of patients",[3],150
same,"change of chest pain score 6, percent of patients",[3],(8.78%)
same,"change of chest pain score 9, number of patients",[3],7
same,"change of chest pain score 9, percent of patients",[3],(0.41%)
same,"change of chest pain score −3, number of patients",[3],70
same,"change of chest pain score −3, percent of patients",[3],(4.10%)
same,"change of chest pain score −6, number of patients",[3],9
same,"change of chest pain score −6, percent of patients",[3],(0.53%)
same,"change of chest pain score −9, number of patients",[3],0
same,"change of chest pain score −9, percent of patients",[3],(0.00%)
same,"change of chest tightness score 0, number of patients",[3],933
same,"change of chest tightness score 0, percent of patients",[3],(54.59%)
same,"change of chest tightness score 3, number of patients",[3],598
same,"change of chest tightness score 3, percent of patients",[3],(34.99%)
same,"change of chest tightness score 6, number of patients",[3],87
same,"change of chest tightness score 6, percent of patients",[3],(5.09%)
